Experimental data as given in article PMC11528066, “Noninvasive Monitoring of Programmed Death-Ligand 2 Expression with Positron Emission Tomography using ^68Ga-labeled Peptide Antagonist in Preclinical and Exploratory Human Studies” (Research, 2024).
Peptide text beside a SMILES is read from it. * marks the point of attachment. NOTA = O=C(O)CN1CCN(CC(=O)O)CCN(CC(=O)*)CC1; AEEEA = NCCOCCOCCOCC(=O)O

Key:
[1] = Pharmacokinetics in blood; type: in vivo; conditions: healthy BALB/C mouse, i.v. 5.55 MBq, noncompartmental model, Phoenix WinNonlin 8.1
Experimental: The static PET/CT imaging in A549 and A549-PD-L2 xenograft models after injection of 5.55 to 7.4 MBq (150 to 200 μCi) of [^68Ga]Ga-HN11-1 or [^68Ga]Ga-HN11-2 were acquired at 60 min. In the [^68Ga]Ga-HN11-1 + block or [^68Ga]Ga-HN11-2 + block groups, the xenograft models underwent pretreatment via intravenous injection of HN11-1 or HN-2 (10 mg/kg) before PET/CT imaging. Then, ROIs were delineated for each group. After imaging, tumor tissues from both the A549 and A459-PD-L2 xenograft tumors were extracted, and the PD-L2 expression was tested by IHC. For the pharmacokinetics study, healthy BALB/C mouse received an intravenous injection of 5.55 MBq (150 μCi) of [^68Ga]Ga-HN11-1 and [^68Ga]Ga-HN11-2. Measure the activity of blood samples (%ID/g, mean ± SD) at the corresponding time points, and the time-activity curve was plotted. Subsequently, pharmacokinetic parameters were tested using the noncompartmental model in Phoenix WinNonlin 8.1 software (Certara, USA).

[2] = system: A549-PD-L2 xenograft tumor models; test: Biodistribution (γ-counter); type: in vivo, BALB/C nude mice; conditions: mean ± SD, n = 3
Experimental: Micro-PET imaging was conducted using an Inveon PET scanner (Siemens, Germany). Dynamic PET examine were acquired over the first 60 min following the simultaneous injection of 7.4 to 9.25 MBq (200 to 250 μCi) of [^68Ga]Ga-HN11-1 and [^68Ga]Ga-HN11-2. After reconstructing the images and delineating the regions of interest (ROIs), time-radioactivity curves were plotted to obtain the Tumor/Muscle (T/M) ratios. %ID/g represents the percentage of the injected dose of the radiotracer that accumulates in a specific tissue per gram of tissue weight. For the biodistribution study, the xenograft models received an intravenous injection of 3.7 to 5.5 MBq (100 to 150 μCi) of [^68Ga]Ga-HN11-1. After the designated period (10, 30, 60, and 90 min), the mice were euthanized, and important tissues and organs were dissected and collected. The samples were counted using the γ-counter for determining the %ID/g, presented as mean ± standard deviation (SD).
A549 cell lines were provided by the China Center for Type Culture Collection (CCTCC) and cultured in RPMI-1640 medium supplemented with 10 % fetal bovine serum and 100 U/mL penicillin-streptomycin. The lentivirus system was implemented to introduce PD-L2 (PDCD1LG2) over-expressed cDNA into the A549 cells. The viral vectors were produced in 293T cells and co-transfected with the psAX2, pMD2G and PD-L2 plasmids. A549 cells transduced with the vectors were selectively grown in 1.6 μg/mL puromycin. Transfection efficiency was identified by WB and real-time quantitative PCR. All the cells were cultured in an incubator at 37° C with 5 % CO2 atmosphere. A549 and A549-PD-L2 cells (5 × 10^6, 200 μL)were subcutaneously implanted into the right shoulder of BALB/C nude mice (male, 4-6 weeks), respectively. When the tumors reached to 5 - 8 mm in diameter, the mice were subjected to in vivo and ex vivo studies. All the mice were purchased from the Laboratory Animal Center of Central South University.

PD-L2 = target: T1, PD-L2 (Homo sapiens, UniProt Q9BQ51); test: [^68Ga]Ga-HN11-1 PET/CT imaging in cancer patients; type: in vivo
T1 construct: from tissue; host or cells: tumour lesions (NSCLC, recurrent or metastatic HNSCC) in living patients
T1 sequence (Q9BQ51 20-273): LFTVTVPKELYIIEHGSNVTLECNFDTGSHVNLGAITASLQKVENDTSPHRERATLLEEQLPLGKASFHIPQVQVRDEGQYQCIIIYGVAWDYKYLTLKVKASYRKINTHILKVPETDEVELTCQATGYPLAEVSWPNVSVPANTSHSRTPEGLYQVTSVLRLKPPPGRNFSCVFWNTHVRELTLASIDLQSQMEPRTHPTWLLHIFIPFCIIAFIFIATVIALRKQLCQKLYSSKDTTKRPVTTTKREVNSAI
Experimental: The program content was explained to all healthy volunteers and cancer patients, and written informed consent was obtained. Whole-body dynamic imaging was conducted for 60 min using a PET/CT 690 Elite scanner (GE Discovery) immediately after intravenous injection of [^68Ga]Ga-HN11-1 (3.1 to 4.9 MBq/kg). A static body scan was performed 15 to 45 min after injection. All cancer patients underwent [^18F]F-FDG and [^68Ga]Ga-HN11-1 PET/CT imaging within 5 d. Two nuclear medicine physicians reconstructed and reviewed the images on GE aw 4.6 workstations and reached a consensus. They delineated the ROIs and measured the values of maximum standard uptake and average standard uptake (SUVmax and SUVmean). The biological distribution of [^68Ga]Ga-HN11-1 in healthy volunteers was determined by SUVmax and SUVmean. The OLINDA/EXM software (version 1.0, Hermes Medical Solutions AB) was used to estimate the human radiation dose based on the SUVmean of each organ.

SMILES: CC[C@H](C)[C@H](NC(=O)[C@H](CCCNC(=N)N)NC(=O)CNC(=O)[C@H](CCC(=O)O)NC(=O)[C@H](CC(N)=O)NC(=O)[C@H](Cc1ccc(O)cc1)NC(=O)[C@H](CCCNC(=N)N)NC(=O)[C@H](Cc1ccc(O)cc1)NC(=O)[C@H](Cc1c[nH]cn1)NC(=O)COCCOCCOCCNC(=O)CN1CCN(CC(=O)O)CCN(CC(=O)O)CC1)C(=O)N[C@@H](CCCNC(=N)N)C(=O)N[C@@H](CC(N)=O)C(=O)O [[^68Ga]Ga-HN11-1, metal not drawn] ({NOTA-AEEEA}-HYRYNEGRIRN-OH)
- half-life in blood [1]: 13.37 min
- Blood uptake ([2]; 10 min p.i.): 2.83 ± 0.21 %ID/g
- Heart uptake ([2]; 10 min p.i.): 1.41 ± 0.10 %ID/g
- Liver uptake ([2]; 10 min p.i.): 2.90 ± 0.47 %ID/g
- Lung uptake ([2]; 10 min p.i.): 1.56 ± 0.06 %ID/g
- Spleen uptake ([2]; 10 min p.i.): 1.91 ± 0.14 %ID/g
- Stomach uptake ([2]; 10 min p.i.): 1.27 ± 0.14 %ID/g
- Blood uptake ([2]; 30 min p.i.): 1.34 ± 0.16 %ID/g
- Heart uptake ([2]; 30 min p.i.): 0.85 ± 0.10 %ID/g
- Kidney uptake ([2]; 30 min p.i.): 66.15 ± 0.73 %ID/g
- Liver uptake ([2]; 30 min p.i.): 1.44 ± 0.31 %ID/g
- Lung uptake ([2]; 30 min p.i.): 0.96 ± 0.09 %ID/g
- Spleen uptake ([2]; 30 min p.i.): 0.86 ± 0.16 %ID/g
- Stomach uptake ([2]; 30 min p.i.): 0.48 ± 0.04 %ID/g
- Blood uptake ([2]; 60 min HN11-1 Block): 0.33 ± 0.02 %ID/g
- Heart uptake ([2]; 60 min HN11-1 Block): 0.18 ± 0.02 %ID/g
- Kidney uptake ([2]; 60 min HN11-1 Block): 76.77 ± 7.10 %ID/g
- Liver uptake ([2]; 60 min HN11-1 Block): 1.20 ± 0.32 %ID/g
- Lung uptake ([2]; 60 min HN11-1 Block): 0.92 ± 0.04 %ID/g
- Spleen uptake ([2]; 60 min HN11-1 Block): 0.96 ± 0.17 %ID/g
- Stomach uptake ([2]; 60 min HN11-1 Block): 0.26 ± 0.05 %ID/g
- Blood uptake ([2]; 60 min p.i.): 0.34 ± 0.01 %ID/g
- Heart uptake ([2]; 60 min p.i.): 0.18 ± 0.02 %ID/g
- Kidney uptake ([2]; 60 min p.i.): 74.56 ± 3.78 %ID/g
- Liver uptake ([2]; 60 min p.i.): 0.91 ± 0.14 %ID/g
- Lung uptake ([2]; 60 min p.i.): 0.74 ± 0.04 %ID/g
- Spleen uptake ([2]; 60 min p.i.): 0.51 ± 0.17 %ID/g
- Stomach uptake ([2]; 60 min p.i.): 0.19 ± 0.03 %ID/g
- Blood uptake ([2]; 90 min p.i.): 0.16 ± 0.03 %ID/g
- Heart uptake ([2]; 90 min p.i.): 0.13 ± 0.01 %ID/g
- Kidney uptake ([2]; 90 min p.i.): 87.01 ± 3.40 %ID/g
- Liver uptake ([2]; 90 min p.i.): 0.28 ± 0.17 %ID/g
- Lung uptake ([2]; 90 min p.i.): 0.40 ± 0.11 %ID/g
- Spleen uptake ([2]; 90 min p.i.): 0.21 ± 0.04 %ID/g
- Stomach uptake ([2]; 90 min p.i.): 0.20 ± 0.02 %ID/g
- median SUVmax (PD-L2; all patients, n = 6): 3.25
- HN11-1 SUVmax (PD-L2; patient 1, NSCLC, lung, PD-L2 expression 80 %): 4.1
- HN11-1 SUVmax (PD-L2; patient 2, NSCLC, lung, PD-L2 expression 15 %): 2.1
- HN11-1 SUVmax (PD-L2; patient 3, rHNSCC, buccal): 4.0
- HN11-1 SUVmax (PD-L2; patient 4, rHNSCC, buccal): 3.0
